How the values were obtained:
Bcl-2 protein = Bcl-2 protein (histag-Bcl-2, UniProtKB P10415) (Homo sapiens (Human), UniProt P10415); test: Inhibition of Bcl-2 by the fluorescence polarisation technique; format: binding; details: fluorescence polarisation test; incubation for 2 hours; read-out: IC50 (nM) Bcl-2 FP
Text: For partial inhibitors, the percentage fluorescence polarisation inhibition for a given concentration of the test compound is indicated.

[1] = system: RS4; 11 leukaemia cell line; test: In vitro cytotoxicity, Microculture Tetrazolium Assay (MTT); format: cell-based; details: Homo sapiens, 11 cells exposed for 48 hours
Description: The cytotoxicity studies were carried out on the RS4; 11 leukaemia cell line and on H146 small Cell Lung Carcinoma cell line. The cells are distributed onto microplates and exposed to the test compounds for 48 hours. The cell viability is then quantified by a colorimetric assay, the Microculture Tetrazolium Assay (Cancer Res., 1987, 47, 939-942).

Sequence of Bcl-2 protein (P10415 whole entry): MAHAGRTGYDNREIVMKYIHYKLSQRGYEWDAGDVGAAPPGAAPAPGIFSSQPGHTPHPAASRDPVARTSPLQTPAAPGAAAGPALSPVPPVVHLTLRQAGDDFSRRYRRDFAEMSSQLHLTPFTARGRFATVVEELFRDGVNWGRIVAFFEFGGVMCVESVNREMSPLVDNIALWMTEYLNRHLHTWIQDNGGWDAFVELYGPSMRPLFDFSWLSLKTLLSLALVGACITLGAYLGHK

Row | IC50 (Bcl-2 protein) | Structure (SMILES) | IC50 [1]
1 | 8.7 nM | C[C@@H]1Cc2ccccc2CN1C(=O)c1cc2c(cc1-c1cc(C(=O)N(C)c3ccc(O)cc3)c3n1CCCC3)CCN(C(=O)NC(C)(C)C)C2 [Example 48, N-tert-Butyl-6-{1-[(4-hydroxyphenyl)(methyl)carbamoyl]-5,6,7,8-tetrahydroindolizin-3-yl}-7-[(3R)-3-methyl-1,2,3,4-tetrahydroisoquinoline-2-carbonyl]-1,2,3,4-tetrahydroisoquinoline-2-carboxamide] | 40 nM
2 | 3.9 nM | Cc1c(C(=O)N(C)c2ccc(O)cc2)cc(-c2cc3c(cc2C(=O)N2Cc4ccccc4C[C@H]2CCN2CCOCC2)CN(C(=O)OC2CCCCC2)CC3)n1C [Example 807, Cyclohexyl 6-{4-[(4-hydroxyphenyl)(methyl)carbamoyl]-1,5-dimethyl-1H-pyrrol-2-yl}-7-[(3S)-3-[2-(morpholin-4-yl)ethyl]-1,2,3,4-tetrahydroisoquinoline-2-carbonyl]-1,2,3,4-tetrahydroisoquinoline-2-carboxylate] | 26 nM

Row | Structure (SMILES) | IC50 (Bcl-2 protein) | IC50 [1]
3 | CN(C(=O)c1cc(-c2cc3c(cc2C(=O)N2Cc4ccccc4C[C@H]2CN2CCOCC2)CN(C(=O)Oc2ccc(C(N)=O)cc2)CC3)n2c1CCCC2)c1ccc(O)cc1 [Example 141, 4-Carbamoylphenyl 6-{1-[(4-hydroxyphenyl)(methyl)carbamoyl]-5,6,7,8-tetrahydroindolizin-3-yl}-7-[(3S)-3-(morpholin-4-ylmethyl)-1,2,3,4-tetrahydroisoquinoline-2-carbonyl]-1,2,3,4-tetrahydroisoquinoline-2-carboxylate] | 5.9 nM | 82 nM

From patent US9809574B2, “Isoindoline or isoquinoline compounds, a process for their preparation and pharmaceutical compositions containing them” (LES LABORATOIRES SERVIER, priority 2013, dated 2017)
